We go through twelve compounds from patent US5968753A, “Positive and positive/negative cell selection mediated by peptide release” (Nexell Therapeutics, Inc., priority 1995, dated 1999).

Ends that are not written are not given here.

In data set [1] the test system is 561 antibody. The data set is described as follows: Chemical reagents as enhancers of peptide-dependant release of CD34+ cells from the 561 antibody (FACS assay). It counts as cell-based. On the procedure: The ability of chemical reagents to enhance peptide-dependant release of captured CD34+ cells from the 561 antibody was examined. […] Previous studies indicated a requirement for low pH (about pH4) for effective cell release. Since long-term viability of the low pH-released cells was not known, conditions which could alter the pH to a more neutral value (about pH5-7) were desirable. Reagents which were known to affect electrostatic and hydrogen bonding interactions of proteins were tested in addition to excluded-volume polymers.
On the technique in general: In flow cytometry, cells or beads pass a laser one at a time.

The test system of data set [2] is 561 antibody. Nature of the data set: KG1a or tHL60 cell-based FACS assay: release of prebound 561 antibody. Conditions: for functional release activity: crude peptide. The procedure:
Five peptides representing hexapeptides selected from biopannings were synthesized and tested for their ability to serve as release agents in the KG1a or tHL60 cell-based FACS assay.
HPLC-purified peptides 561C and D were tested in the cell-based KG1a FACS assay.
Functional release activity of purified 561D peptide at pH 4 and 6 was tested.
Functional release activity of purified 561C and 561D peptides at pH 4, 5, 6, 7, 8, and 9 was tested.
Functional release activity of crude 561A,B,C,D, M, P, Q, CDR2H, CDR2L, CDR3H, CDR3L, 34B, 34C,34D,34E and 34F peptides adjusted to pH 7 and pH unadjusted (^~ pH3.8-4.3) was tested.

A further data set deals with anti-CD34 antibody, 9069. Nature of the data set: KG1a cell FACS assay: release by peptides of 9069 antibody bound to cells. It is filed as cell-based, mouse. On the procedure: These experiments were performed following a similar procedure to the binding experiments except that the anti-CD34 antibody, 9069, was incubated with KG1a cells first, followed by addition of peptide. The experimental outline is schematically shown below:
Anti-CD34 antibody, 9069 (0.1 microgram) was incubated with KG1a cells (10^6) for 30 minutes at room temperature (about 22° C.). Molar excesses of 10^5 to 10^6 times the amount of peptide to antibody were tested for the ability to displace the prebound antibody. Peptides were incubated with the antibody-cell complexes for 30 minutes at room temperature (approximately 22° C.). Remaining bound antibody was detected using the FITC-goat anti-mouse IgG reagent described in Example 3.
Analysis of the variant peptide, 9069Q2, was done in parallel with the 9069N peptide. This analysis provides quality control information on reagents including the antibody, 9069, and the cells, KG1a. FACScan assays included a negative control of KG1a cells alone and positive control samples of KG1a cells with the 9069 antibody bound and detected with a secondary antibody, goat-anti-mouse IgG-FITC.

Data set [3] relates to positively selected CD34+ cells. The data set is described as follows: Culture of positively selected CD34+ cells with cytokines for 12 days. It is filed as cell-based, human. The note with it: released cells of first experiment. The procedure:
The purity of the positively selected CD34+ cells was greater than 90% for both the chymopapain and peptide released cells. In a first experiment, the peptide release method yielded 14×10^6 cells, while the chymopapain release method yielded 20×10^6 cells. In a second experiment, the peptide release method yielded 19×10^6 cells, while the chymopapain release method yielded 22×10^6 cells. The positively selected CD34+ cells from the first experiment were grown in culture with cytokines for 12 days.

The next data set has as its system CD34+ cells. The data set is described as follows: CD34+ cell isolation from mobilized peripheral blood on automated cell separation apparatus. It counts as cell-based, human. Conditions: 25 mg of peptide 9069N or chymopapain control. On the procedure: CD34+ cells were also isolated from human mobilized peripheral blood using the automated cell separation apparatus of co-pending U.S. patent application Ser. No. 08/212,479, and the method essentially as described in co-pending U.S. patent application Ser. No. 08/212,616. Both Ser. No. 08/212,479 and Ser. No. 08/212,616 are herein expressly incorporated by reference. Chymopapain was used as the control releasing agent, and 25 mg of the peptide 9069N (Table 11) was used as the test releasing agent.

The subject of a further data set is 9069 antibody. Nature of the data set: Stem cell selection with 9069 antibody and sheep-anti-mouse beads, release by peptide or chymopapain. The note with it: chymopapain release. It counts as cell-based.
The nature of data set [4]: Solubilization of peptides in DPBS plus 1% HSA. Conditions: Dulbecco's phosphate buffered saline (DPBS) plus 1% HSA. It counts as physicochemical. The procedure: 9079A-G peptides were solubilized in Dulbecco's phosphate buffered saline (DPBS) plus 1% HSA. The 9079A-G peptides were tested in the FACScan assay using 10 6 KG1a cells bound with 0.05 ug of the 9079 antibody.

Setting [5] is: Table 7, mobilized peripheral blood (5.86 % CD34).
The mark [6] stands for this setting: Table 8, mobilized peripheral blood (1.05 % CD34).
[7] abbreviates: Table 9, bone marrow sample (3.66 % CD34).
Where [8] appears, read: Table 10, mobilized peripheral blood (0.68 % CD34).

Take `[Cl-].[Cl-].[Mg+2]` [magnesium chlordie, magnesium chloride]: the “enhancement of peptide mediated release of CD34+ selected cells” value with 561 antibody [1] is “Less dramatic results”.

In the case of `CC(=O)O` [sodium acetate], the “enhancement of peptide mediated release of CD34+ selected cells” value in the data set with 561 antibody [1] is reported as “significant activity as an enhancement reagent”.

In the case of A C K W C R (ACKWCR) [561M], the “release of 561 antibody prebound to KG1a or tHL60 cells” value with 561 antibody [2] (KG1a or tHL60 cells) is on record as “able to release 561 antibody prebound to KG1a or tHL60 cells”. Also, the “functional release activity” value in the data set with 561 antibody [2] (pH 7) is “none of these peptides showed release activity”; in the data set on 561 antibody [2] (pH unadjusted (around pH 3.8-4.3)), “showed functional release activity”. The “release activity” value in the data set with 561 antibody [2] (low pH (~4)) is “showed significant release activity”; with 561 antibody [2] (pH 6 or pH 7), “did not show release activity”.

For the compound ADGA-NGGYFP-GAKD [9069H'], the Competition % in the data set on anti-CD34 antibody, 9069 (Table 11, 9069 prebound to KG1a cells) amounted to 75%. In addition, the “release activity” value in the data set with anti-CD34 antibody, 9069 (Table 13, yes/no) is given as “yes”.

Take Chymopapain: the “expansion in cell number” value in data set [3] is 68 fold. For the same compound, the “cells yielded by release method” value with CD34+ cells (first experiment) is 20×10^6 cells; in the data set on CD34+ cells (second experiment), 22×10^6 cells. Also, the “purity of the positively selected CD34+ cells” value in the data set with CD34+ cells (mobilized peripheral blood) is given as “greater than 90%”. Moreover, the “% CD34 CELLS Negative Fraction” value came to 2.5% in the data set on 9069 antibody (setting [5]), 0.16% with 9069 antibody (setting [6]), 0.34% in the data set with 9069 antibody (setting [7]) and 0.12% in the data set on 9069 antibody (setting [8]). The “% CD34 CELLS Positive Fraction” value in the data set on 9069 antibody (setting [5]) is listed as 94%; in the data set on 9069 antibody (setting [6]), 90.1%; in the data set with 9069 antibody (setting [7]), 92.1%; with 9069 antibody (setting [8]), 79.73%. The “% Capture” value in the data set with 9069 antibody (setting [5]) is listed as 62%; in the data set on 9069 antibody (setting [6]) it was 86.9%; in the data set with 9069 antibody (setting [7]) it was 91.8%; with 9069 antibody (setting [8]), 86.7%. The “% Yield” value in the data set on 9069 antibody (setting [5]) turned out to be 65.9%; with 9069 antibody (setting [6]), 73.4%; in the data set on 9069 antibody (setting [7]) it was 79.9%; in the data set on 9069 antibody (setting [8]) it was 68%.

In the case of IQEFGVKD [9079F, IQEFGV-KD], in data set [4], the “solubility” value is given as “solubilized”.

As to KDVYSLWPKD [9079H, KD-VYSLWP-KD], the “solubility” value in data set [4] is listed as “solubilized”.

Consider NLQGEFKD [9079D, NLQGEF-KD], for which, in data set [4], the “solubility” value was “solubilized”.

With PGSPLGKD [9079A, PGSPLG-KD], in data set [4], the “solubility” value is on record as “solubilized”.

For QYTQPKD [9079C, QYTQPK-D], in data set [4], the “solubility” value was “solubilized”.

Consider RSFYYRD [9079E, RSFYYR-D], for which, in data set [4], the “solubility” value was “insoluble”.

As to YSRLGFKD [9079B, YSRLGF-KD], the “solubility” value in data set [4] was “solubilized”.
